Reference: US20250090562A1, “METHODS, COMPOSITIONS AND USES RELATED TO THE TREATMENT AND PREVENTION OF LEIGH’S SYNDROME” (Stealth BioTherapeutics Inc., priority 2023, published 2025)
Like-named read-outs stand apart in the source and are kept apart here.

Columns and labels:
15-lipoxygenase (15-LO) [1] = assay: 15(S)-HETE ELISA following erastin treatment, healthy fibroblasts; type: cell-based, human; settings: erastin + FAC + AA, 1 μM compound, 24 h
Experimental: (§1) Samples for the 15(S)-HETE ELISA were generated by the Erastin Assay described above. Healthy or Leigh fibroblasts were resuspended in assay medium, seeded at 200,000 cells/well in a clear, tissue culture-treated, 24-well plate, and incubated at 37° C. for 24 hours. Supernatant was aspirated from each well.
(§2) Ferroptosis was induced using erastin at 2 μM concentration. 15(S)-HETE, which is a metabolite of arachidonic acid and generated by activity of 15-LO, was measured using a commercially available ELISA kit. Data were normalized to the “No treatment” group, which represented fibroblasts that were not injured with erastin.

15-lipoxygenase (15-LO) [2] = assay: 15(S)-HETE ELISA following erastin treatment, Leigh fibroblasts; type: cell-based, human; settings: erastin + FAC + AA, 1 μM compound, 24 h
Experimental: as §1, §2

[3] = type: in vivo; settings: rat, single dose 1 mg/kg IV, 10 mg/kg SC or 10 mg/kg PO
Experimental: • Animals: Rat/Sprague Dawley/Male/Naive 225-250 grams were received from an approved vendor. • Animals were fasted overnight prior to dose administration. Food was returned following the 2 hour sample collection. • Body weights were recorded prior to dose administration. The volume of each dose delivered (ml/kg) was based on each individual animal's body weight. • This was a single dose, serial blood collection study with tissues collected for possible future analysis. • Doses were administered in accordance with test facility standard operating procedures. […].
• Blood samples were collected via jugular vein catheter (JVC) and transferred to tubes with appropriate anticoagulant. The tubes were stored on wet ice until processed to plasma by centrifugation (3500 rpm at 5° C. for 10 minutes) within 20 minutes of collection. Sample aliquots of 100 μL were transferred into individual uniquely labeled matrix tubes containing 10 μL of 5% (v/v) formic acid aqueous solution and stored at nominal −80° C. until analyzed by LC/MS/MS. • Immediately following final serial blood collection (24 hours, JVC), animals were sacrificed and perfused with cold PBS. […]

[4] = Compound 4 pharmacokinetics and tissue exposure, five daily subcutaneous doses, mice; type: in vivo, C57BL/6 mice
Experimental: • Animals were allowed to acclimate to the test facility for at least two days prior to the beginning of the study. • Study animals were male C57BL/6 mice weighing approximately 18-25 grams each. • Fasting was not required for the study. • Body weights were recorded prior to dose administration. The volume of each dose delivered (mL/kg) was based on each individual animal's body weight. • This was a multiple dose serial PK dosed subcutaneously once daily over 5 days. Compound 4 was administered to two groups: Group 1 at 60 mg/kg and Group 2 at 180 mg/kg (6 and 18 mg/mL, 15% Kolliphor ELP in PBS, 10 mL/kg; N=3/group). Serial PK timepoints were collected following the 5th and final dose.
• Serial blood samples were collected via tail vein snip. • Blood samples were collected into tubes with anticoagulant. Tubes were stored on wet ice until processed to plasma by centrifugation (3500 rpm at 5° C. for 10 minutes) within 20 minutes of collection. Sample aliquots of 20 μL were transferred into individual uniquely labeled matrix tubes and stored at nominal −80° C. until transferred to analytical chemistry for analysis. • Immediately following each terminal blood collection for all groups, animals were sacrificed and perfused with cold PBS. Heart and brain tissues were collected. • Perfusion methodology: The chest was opened lengthwise using scissors to expose the thoracic organs. A scalpel was used to cut a small hole into the left ventricle just large enough to insert a cannula tip. The cannula was attached to an appropriately sized tubing and syringe prefilled with cold PBS and primed to remove any air. The tip of the cannula was inserted into the left ventricle and directed into the ascending aorta. Hemostats were used to help keep the cannula in place during perfusion. A second hole was made in the right atrium to allow for the escape of fluid during the return circulation. The syringe attached to the cannula was manually pushed or placed into a pump programmed to infuse at 10 mL/min. Animals were perfused for a minimum of 3 minutes or more if needed (until the exiting fluid was clear).
• N=3/group; • Collections relative to the final dose: • Plasma: 60 mg/kg at 2 and 24 hr; 180 mg/kg at predose, 2, 8, and 24 hr • Heart and Brain: 24 hr (terminal, PBS-perfused); • RGA 2 bioanalysis. […]

[5] = male, C57BL/6, mouse, in vivo, sc
[6] = male, C57BL/6, mouse, in vivo, sc, 60 mg/kg
[7] = male, C57BL/6, mouse, in vivo, sc, 60 mg/kg, 24 h
[8] = male, C57BL/6, mouse, in vivo, sc, 180 mg/kg
[9] = male, C57BL/6, mouse, in vivo, sc, 180 mg/kg, 24 h

Compound: CC1=C(C)C(=O)C(CC[C@@](C)(O)CC/C=C(\C)CCC=C(F)F)=C(C)C1=O [Compound 2]
- relative 15-LO inhibition (comparison between test articles) (15-lipoxygenase (15-LO) [1]): slightly less effective
- relative 15-LO inhibition (comparison between test articles) (15-lipoxygenase (15-LO) [2]): slightly less effective
- tolerability [3]: well tolerated
- delivery by mode of administration ([3]; preliminary): effectively administered

Compound: CC1=C(C)C(=O)C(CC[C@](C)(O)CCCCCCCCC(F)(F)F)=C(C)C1=O [Compound 4]
- tolerability ([4]; 60 and 180 mg/kg SC over 5 days, 10 mL/kg QD, 15% Kolliphor ELP in PBS): well tolerated
- Geomean C24 ([4]; male, C57BL/6, mouse, in vivo, 180 mg/kg, 24 h): 602 ng/g
- concentration at 24 h ([4]; male, C57BL/6, mouse, in vivo, 180 mg/kg, Geomean C24): 514 ng/g
- time to steady-state [4, 5]: ≤ 5 days
- AUC(0-t) [4, 6]: 15400 ng·h/mL
- AUClast/Dose [4, 6]: 257 kg·ng·h/mL/mg
- Cmax [4, 6]: 1440 ng/mL
- Concentration in C57BL/6 Mouse Tissue, Geomean [4, 7]: 225 ng/g
- Concentration in C57BL/6 Mouse Tissue, Mean [4, 7]: 226 ng/g
- Cmax ([4]; male, C57BL/6, mouse, in vivo, sc, 60 mg/kg, Cmax): 1810 ng/mL
- concentration at 24 h ([4]; male, C57BL/6, mouse, in vivo, sc, 60 mg/kg, Concentration in C57BL/6 Mouse Tissue, Geomean): 192 ng/g
- concentration at 24 h ([4]; male, C57BL/6, mouse, in vivo, sc, 60 mg/kg, Concentration in C57BL/6 Mouse Tissue, Mean): 212 ng/g
- AUC(0-t) [4, 8]: 49100 ng·h/mL
- AUClast/Dose [4, 8]: 273 kg·ng·h/mL/mg
- Cmax/Dose [4, 8]: 26.7 kg·ng/mL/mg
- C24/Dose [4, 9]: 1.48 kg·ng/mL/mg
- Concentration in C57BL/6 Mouse Tissue, Geomean [4, 9]: 602 ng/g
- Concentration in C57BL/6 Mouse Tissue, Mean [4, 9]: 635 ng/g
- concentration at 24 h ([4]; male, C57BL/6, mouse, in vivo, sc, 180 mg/kg, C24): 266 ng/mL
- Cmax ([4]; male, C57BL/6, mouse, in vivo, sc, 180 mg/kg, Cmax): 4800 ng/mL
- concentration at 24 h ([4]; male, C57BL/6, mouse, in vivo, sc, 180 mg/kg, Concentration in C57BL/6 Mouse Tissue, Geomean): 514 ng/g
- concentration at 24 h ([4]; male, C57BL/6, mouse, in vivo, sc, 180 mg/kg, Concentration in C57BL/6 Mouse Tissue, Mean): 529 ng/g
- Tmax [4, 8]: 2 h
- Tmax [4, 5]: 0.5 to 2 h
- plasma exposure versus dose ([4]; mouse, in vivo): approximately proportional to dose
- tissue C24 (trough) exposure versus dose ([4]; mouse, in vivo): approximately proportional to dose
